Measurements published in patent US4232010A, “Calcium-antagonistic composition” (Kanebo, Ltd., priority 1978, dated 1980).
Like-named read-outs stand apart in the source and are kept apart here.

Assays:
taenia coli = molecular target: T1, taenia coli (Cavia porcellus, UniProt O35505); test: Calcium antagonist activity (pA2), isolated guinea-pig taenia coli; settings: 5 cases, read-out: pA2 (mean ± standard error) of calcium antagonist activity (converted)
T1 construct: a test was conducted using isolated taenia colis about 2 cm long; from tissue; host or cells: isolated guinea-pig taenia coli
T1 sequence (O35505 whole entry): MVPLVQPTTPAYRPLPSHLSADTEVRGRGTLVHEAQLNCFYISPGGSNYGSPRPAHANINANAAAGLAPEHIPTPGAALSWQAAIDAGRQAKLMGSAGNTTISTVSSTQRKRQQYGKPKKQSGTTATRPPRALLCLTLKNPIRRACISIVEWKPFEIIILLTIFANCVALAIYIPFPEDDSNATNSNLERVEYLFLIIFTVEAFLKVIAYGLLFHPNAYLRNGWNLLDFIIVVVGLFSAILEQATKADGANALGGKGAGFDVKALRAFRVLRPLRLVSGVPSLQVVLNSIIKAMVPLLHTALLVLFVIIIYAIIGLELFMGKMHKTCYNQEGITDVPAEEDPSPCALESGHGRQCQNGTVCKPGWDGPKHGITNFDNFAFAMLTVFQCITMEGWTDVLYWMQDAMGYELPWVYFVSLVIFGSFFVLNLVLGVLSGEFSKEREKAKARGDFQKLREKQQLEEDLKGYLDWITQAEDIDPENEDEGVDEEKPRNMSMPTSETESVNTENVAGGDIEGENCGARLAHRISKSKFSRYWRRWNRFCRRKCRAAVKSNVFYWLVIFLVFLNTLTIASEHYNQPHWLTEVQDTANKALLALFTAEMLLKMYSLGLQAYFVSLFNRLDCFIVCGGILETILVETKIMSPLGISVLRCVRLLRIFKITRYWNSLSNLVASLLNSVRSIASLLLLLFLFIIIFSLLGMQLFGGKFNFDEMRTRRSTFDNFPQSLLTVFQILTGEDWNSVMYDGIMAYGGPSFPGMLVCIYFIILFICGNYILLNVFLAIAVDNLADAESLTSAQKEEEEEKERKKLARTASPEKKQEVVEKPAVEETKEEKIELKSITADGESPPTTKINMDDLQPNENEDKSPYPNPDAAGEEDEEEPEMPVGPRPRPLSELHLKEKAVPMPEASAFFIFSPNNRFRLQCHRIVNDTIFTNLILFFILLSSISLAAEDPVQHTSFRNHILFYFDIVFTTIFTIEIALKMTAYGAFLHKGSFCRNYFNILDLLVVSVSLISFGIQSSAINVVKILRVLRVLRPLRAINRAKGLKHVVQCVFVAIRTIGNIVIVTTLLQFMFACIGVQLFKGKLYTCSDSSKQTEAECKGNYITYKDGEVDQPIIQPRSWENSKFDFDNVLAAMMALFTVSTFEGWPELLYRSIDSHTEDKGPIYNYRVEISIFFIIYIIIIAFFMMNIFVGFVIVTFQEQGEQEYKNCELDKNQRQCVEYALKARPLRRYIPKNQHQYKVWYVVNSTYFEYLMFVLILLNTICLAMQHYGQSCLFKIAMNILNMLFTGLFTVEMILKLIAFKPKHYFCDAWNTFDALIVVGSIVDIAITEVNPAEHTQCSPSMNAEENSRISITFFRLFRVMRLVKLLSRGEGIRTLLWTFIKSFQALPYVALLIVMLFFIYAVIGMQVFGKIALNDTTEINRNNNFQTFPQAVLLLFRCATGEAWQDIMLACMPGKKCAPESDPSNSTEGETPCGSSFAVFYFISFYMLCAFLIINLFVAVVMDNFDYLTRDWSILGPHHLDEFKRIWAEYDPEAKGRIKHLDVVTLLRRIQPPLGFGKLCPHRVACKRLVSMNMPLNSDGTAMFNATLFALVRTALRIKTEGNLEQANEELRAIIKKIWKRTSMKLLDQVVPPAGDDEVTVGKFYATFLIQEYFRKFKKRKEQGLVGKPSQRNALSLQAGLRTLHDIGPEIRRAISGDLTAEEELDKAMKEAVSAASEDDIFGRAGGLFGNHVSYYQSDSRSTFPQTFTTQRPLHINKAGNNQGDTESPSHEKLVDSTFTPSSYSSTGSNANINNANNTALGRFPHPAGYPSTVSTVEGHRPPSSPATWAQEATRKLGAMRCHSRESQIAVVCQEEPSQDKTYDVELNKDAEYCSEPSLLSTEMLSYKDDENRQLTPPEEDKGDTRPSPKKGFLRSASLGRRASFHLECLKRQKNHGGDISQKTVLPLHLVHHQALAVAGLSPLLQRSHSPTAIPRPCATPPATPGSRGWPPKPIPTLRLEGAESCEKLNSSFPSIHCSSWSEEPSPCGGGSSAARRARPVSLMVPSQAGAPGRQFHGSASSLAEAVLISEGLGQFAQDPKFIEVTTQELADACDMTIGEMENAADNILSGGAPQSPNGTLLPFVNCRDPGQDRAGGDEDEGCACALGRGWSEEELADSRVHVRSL
Method: (§1) Male guinea-pigs weighing 350-450 g each were slaughtered and a test was conducted using isolated taenia colis about 2 cm long. A taenia coli was suspended in a Magnus chamber (Locke solution, 25°±2° C., aerated) and the contractile response of the taenia coli was recodered through an isotonic transducer. To the decalcified taenia coli was cumulatively added 0.1 to 100 mM of calcium in the presence of 6×10^-3 g/ml of K^+ to obtain a dose-contraction curve for calcium and, after the taenia coli was decalcified again, a dose-contraction curve for calcium was determined in the presence of the test compound. Based on the difference between the responses, the pA2 of calcium antagonist activity of the test compound was computed.

[1] = test system: isolated guinea-pig heart; test: Action on coronary blood flow, isolated guinea-pig heart (Langendorff); settings: Cavia porcellus, dosage 10 γ/heart, read-out: Maximum increase in coronary flow (Δ% ± standard error)
Method: Male guinea-pigs with body weights from 400 to 500 g were slaughtered and promptly thoractomized. After the ascending aorta was cannulated, the heart was enucleated. By the method of Langendorff, this isolated heart was perfused with the Krebs-Henseleit fluid oxygenated with a gaseous mixture of 95% O2 and 5% CO2 at a fluid temperature of 34°±1° C. and perfusion pressure of 60 cm H2 O, and the test compound was infused. The coronary flows before and after infusion were measured and the percent gain in coronary flow was obtained. The coronary flow was measured with a square-wave electromagnetic flowmeter (Nihon Kohden, MF-26) with an extracorporeal probe (Nihon Kohden, FE) set at the top of the cannula and recorded with a multipurpose polygraph (Nihon Kohden, RM-85). The test compound was dissolved in propylene glycol to a concentration of 100 γ/ml and 0.1 ml of the solution was infused at the rate of 0.1 ml/min.

[2] = Acute toxicity test in mice, intraperitoneal; settings: mouse, in vivo, ip, male ddY mice, deaths within 72 hours
Method: An acute toxicity test was performed in male ddY mice (in groups of 5 animals, body weights 20±2 g) by the intraperitoneal administration of a test compound.
A suspension of each compound in 0.5% carboxymethylcellulose was administered, the deaths within 72 hours were counted and the LD50 values were calculated by the method of Weil.

[3] = molecular target: T2, taenia coli (Cavia porcellus); test: Calcium antagonist activity (pA2), isolated guinea-pig taenia coli
T2 construct: a test was conducted using isolated taenia colis about 2 cm long; from tissue; host or cells: isolated guinea-pig taenia coli
T2 sequence (O35505 whole entry): as above
Method: as §1

[4] = test system: coronary flow and blood pressure; test: Action on coronary flow and blood pressure (intravenous administration into dogs); assay type: in vivo, dog; settings: 0.2 mg/kg
Method: Dogs weighing 11 to 24 kg were anaesthetized with pentobarbital sodium (35 mg/kg, intraperitoneal) and, under supportive respiration, a right thoractomy was performed by removing the fourth rib. The pericardial membrane was then incised to expose the heart. The coronary sinus flow was measured with a cannula inserted from the right auricle into the coronary sinus and connected to an electromagnetic flowmeter (Nihon Kohden K.K., MF-26.) The outflowing blood was returned to the femoral vein through a rubber tubing.
The blood pressure was measured with a pressure transducer (Nihon Kohden K.K., MPU-0.5) connected to the cannula inserted into the femoral artery, and was recorded with a multipurpose polygraph (Nihon Kohden K.K., RM-85) which also recorded the coronary blood flow. The heart rate was calculated based on the electrocardiogram. The test compound was dissolved in dog serum and injected into the femoral vein.

[5] = test system: coronary flow and blood pressure; test: Activity on intraduodenal administration to dogs (coronary flow, blood pressure, heart rate); assay type: in vivo, dog; settings: 10 mg/kg
Method: Dogs weighing 12 to 22 kg were anaesthetized with pentobarbital sodium [35 mg/kg, i.p.] and under supportive respiration, a left thoractomy was performed at the fourth interspace. The pericardium was incised to expose the heart and the blood flow through circumflex branch of left coronary was measured with an electromagnetic flowmeter (Nihon Kohden K.K., MF-26). The blood pressure was measured from a cannula inserted into the carotid artery through a pressure transducer (Nihon Kohden K.K., MPU-0.5), while the heart rate was calculated based on the electrocardiogram. The abdomen was sutured with the end of the cannula left out of the body and the test compound was administered. The test compound was diluted with 0.5% CMC to a concentraion of 10 mg/ml and administered at a dose of 10 mg/kg.

[6] = time after administration 5 (unit not given)
[7] = time after administration 30 (unit not given)
[8] = time after administration 60 (unit not given)
[9] = time after administration 120 (unit not given)

CC(C)OP(=O)(Cc1ccc(-c2nc3ccccc3s2)cc1)OC(C)C [1-(benzothiazol-2-yl)-4-di-iso-propyloxyphosphinylmethylbenzene]
Kb (taenia coli; test compound 3 × 10^-6 g/ml): 776 nM | activation at 10 µg/heart [1]: 90.7 ± 31.7% | LD50 at 72 h [2]: 1660 mg/kg

CCCCOP(=O)(Cc1ccc(-c2nc3ccccc3s2)cc1)OCCCC [1-(benzothiazol-2-yl)-4-di-n-butyloxyphosphinylmethylbenzene]
activation at 10 µg/heart [1]: 65.1 ± 22.8% | LD50 at 72 h [2]: > 2250 mg/kg

CCCOP(=O)(Cc1ccc(-c2nc3ccccc3s2)cc1)OCCC [1-(benzothiazol-2-yl)-4-di-n-propyloxyphosphinylmethylbenzene]
activation at 10 µg/heart [1]: 65.1 ± 12.2% | LD50 at 72 h [2]: > 2250 mg/kg

CCOP(=O)(Cc1ccc(-c2nc3ccccc3s2)cc1)OCC [1-(benzothiazol-2-yl)-4-diethoxyphosphinylmethylbenzene]
Kb [3]: 120 nM | Change in heart rate (Δbeats/min. ± standard error) [4]: -11.2 ± 2.1 Δbeats/min. | Increase in coronary senus outflow (Δ% ± standard error) [4]: 42.8 ± 6.2 Δ% | Mean change in blood pressure (ΔmmHg ± standard error) [4]: -10.0 ± 3.6 ΔmmHg | activation at 10 µg/heart [1]: 83.8 ± 9% | LD50 at 72 h [2]: 962 mg/kg

COP(=O)(Cc1ccc(-c2nc3ccccc3s2)cc1)OC [1-(benzothiazol-2-yl)-4-dimethoxyphosphinylmethylbenzene]
activation at 10 µg/heart [1]: 38.5 ± 13.6% | LD50 at 72 h [2]: 1070 mg/kg

CC(C)OP(=O)(Cc1ccc(-c2nc3ccccc3s2)nc1)OC(C)C [2-(benzothiazol-2-yl)-5-di-iso-propyloxyphosphinylmethylpyridine]
Kb (taenia coli; test compound 1 × 10^-6 g/ml): 2570 nM | activation at 10 µg/heart [1]: 79.9 ± 13.1% | LD50 at 72 h [2]: > 2250 mg/kg

CCCCOP(=O)(Cc1ccc(-c2nc3ccccc3s2)nc1)OCCCC [2-(benzothiazol-2-yl)-5-di-n-butyloxyphosphinylmethylpyridine]
Kb (taenia coli; test compound 1 × 10^-6 g/ml): 4070 nM | activation at 10 µg/heart [1]: 50.3 ± 10.8%

CCCOP(=O)(Cc1ccc(-c2nc3ccccc3s2)nc1)OCCC [2-(benzothiazol-2-yl)-5-di-n-propyloxyphosphinylmethylpyridine]
Kb (taenia coli; test compound 1 × 10^-6 g/ml): 1120 nM | activation at 10 µg/heart [1]: 66 ± 21.6% | LD50 at 72 h [2]: 713 mg/kg

CCOP(=O)(Cc1ccc(-c2nc3ccccc3s2)nc1)OCC [2-(benzothiazol-2-yl)-5-diethoxyphosphinylmethylpyridine]
Kb [3]: 37.2 nM | Change in heart rate (Δbeats/min. ± standard error) [5, 6]: -5.6 ± 1.2 Δbeats/min. | Increase in blood flow through circumflex branch of left coronary (Δ% ± standard error) [5, 6]: 14.3 ± 7.4 Δ% | Mean change in blood pressure (ΔmmHg ± standard error) [5, 6]: -12.9 ± 3.4 ΔmmHg | Change in heart rate (Δbeats/min. ± standard error) [5, 7]: -23.3 ± 3.8 Δbeats/min. | Increase in blood flow through circumflex branch of left coronary (Δ% ± standard error) [5, 7]: 37.7 ± 9.6 Δ% | Mean change in blood pressure (ΔmmHg ± standard error) [5, 7]: -12.4 ± 2.3 ΔmmHg | Change in heart rate (Δbeats/min. ± standard error) [5, 8]: -26.9 ± 3.8 Δbeats/min. | Increase in blood flow through circumflex branch of left coronary (Δ% ± standard error) [5, 8]: 54.4 ± 11.3 Δ% | Mean change in blood pressure (ΔmmHg ± standard error) [5, 8]: -11.0 ± 3.5 ΔmmHg | Change in heart rate (Δbeats/min. ± standard error) [5, 9]: -26.4 ± 3.8 Δbeats/min. | Increase in blood flow through circumflex branch of left coronary (Δ% ± standard error) [5, 9]: 50.7 ± 12.7 Δ% | Mean change in blood pressure (ΔmmHg ± standard error) [5, 9]: -11.2 ± 3.9 ΔmmHg | Change in heart rate (Δbeats/min. ± standard error) [4]: -16.3 ± 3.2 Δbeats/min. | Increase in coronary senus outflow (Δ% ± standard error) [4]: 74.4 ± 7.3 Δ% | Mean change in blood pressure (ΔmmHg ± standard error) [4]: -14.5 ± 5.4 ΔmmHg | activation at 10 µg/heart [1]: 98.6 ± 10.6% | LD50 at 72 h [2]: 1060 mg/kg

COP(=O)(Cc1ccc(-c2nc3ccccc3s2)nc1)OC [2-(benzothiazol-2-yl)-5-dimethoxyphosphinylmethylpyridine]
activation at 10 µg/heart [1]: 28.6 ± 3.8%

COc1ccc([C@@H]2Sc3ccccc3N(CCN(C)C)C(=O)[C@@H]2OC(C)=O)cc1 [Diltiazem, reference compound]
Change in heart rate (Δbeats/min. ± standard error) [5, 6]: 1.6 ± 2.0 Δbeats/min. | Increase in blood flow through circumflex branch of left coronary (Δ% ± standard error) [5, 6]: 1.8 ± 1.8 Δ% | Mean change in blood pressure (ΔmmHg ± standard error) [5, 6]: -2.4 ± 1.3 ΔmmHg | Change in heart rate (Δbeats/min. ± standard error) [5, 7]: -13.2 ± 1.2 Δbeats/min. | Increase in blood flow through circumflex branch of left coronary (Δ% ± standard error) [5, 7]: 34.4 ± 8.2 Δ% | Mean change in blood pressure (ΔmmHg ± standard error) [5, 7]: -11.0 ± 1.3 ΔmmHg | Increase in blood flow through circumflex branch of left coronary (Δ% ± standard error) [5, 8]: 33.0 ± 12.2 Δ% | Mean change in blood pressure (ΔmmHg ± standard error) [5, 8]: -14.4 ± 2.3 ΔmmHg | Change in heart rate (Δbeats/min. ± standard error) [5, 9]: -23.6 ± 4.0 Δbeats/min. | Increase in blood flow through circumflex branch of left coronary (Δ% ± standard error) [5, 9]: 34.8 ± 15.1 Δ% | Mean change in blood pressure (ΔmmHg ± standard error) [5, 9]: -16.0 ± 4.7 ΔmmHg | Change in heart rate (Δbeats/min. ± standard error) [4]: -20.5 ± 7.8 Δbeats/min. | Increase in coronary senus outflow (Δ% ± standard error) [4]: 67.9 ± 8.5 Δ% | Mean change in blood pressure (ΔmmHg ± standard error) [4]: -21.4 ± 6.1 ΔmmHg | activation at 10 µg/heart [1]: 66 ± 7.1%
